According to PMC12892976, “Alkylation-based optimization of antifungal FPPS inhibitors yields a potent, broad-spectrum lipophilic zoledronate derivative” (mBio, 2025):
≈ marks a conversion by molar mass, not a printed value. Where two headings read alike, the source gives them in different places.

Key:
Candida albicans [1] = test: checkerboard drug interaction (FICI, MICc);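 on all read-outs here: antifungal plus FPPS inhibitor combinations on Candida albicans tested by a simplified diagonal checkerboard screen, with FICI calculated under the Loewe additivity model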; format: cell-based; conditions: C. albicans; for INH FD (MIC-MICc fold decrease): fold decrease of inhibitor MIC
Procedure: (§1) Drug interactions between antifungals and FPPS inhibitors were investigated using a simplified checkerboard diagonal screening method ([45]). […] FICIs were determined according to the Loewe additivity model ([17]).

Trichophyton rubrum [2] = test: MIC/MFC broth microdilution (CLSI); conditions: Trichophyton rubrum
Procedure: (§2) Antifungal susceptibility was determined by broth microdilution according to the CLSI guidelines described in M27-Ed4 ([16]). […] MFC was determined by back-plating drug-treated cultures from MIC broths onto SDA plates. The MFC was defined as the lowest concentration from which no colonies could be cultured.

Trichophyton rubrum [3] = test: checkerboard drug interaction (FICI, MICc);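 further: simplified diagonal checkerboard screen pairing azole antifungals with FPPS inhibitors, FICI calculated under the Loewe additivity model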; format: cell-based; conditions: T. rubrum
Procedure: as §1

Aspergillus flavus [4] = test: checkerboard drug interaction (FICI, MICc);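 further: simplified diagonal checkerboard screen pairing azole antifungals with FPPS inhibitors, FICI calculated under the Loewe additivity model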; format: cell-based; set-up: INH MICc (KET:INH) / INH MICc (FLC:INH): unit not given beside the values; conditions: A. flavus
HEK-293T cells = test: MTT reduction cytotoxicity assay; format: cell-based; conditions: Homo sapiens, HEK-293T, 72 h, HEK-293T, MTT, 72 h; read-out: HEK IC50
Aspergillus fumigatus [5] = test: checkerboard drug interaction (FICI, MICc); format: cell-based;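 further: simplified diagonal checkerboard screen pairing antifungals with FPPS inhibitors against Aspergillus fumigatus, with FICI calculated under the Loewe additivity model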
Procedure: as §1

Candida albicans [6] = test: MIC/MFC broth microdilution (CLSI); format: cell-based; conditions: Candida albicans SC5314
Procedure: as §2

eight fungal species [7] = test: checkerboard interaction with azoles, summary across the eight species; format: cell-based; conditions: geometric mean MIC in combination with azoles
Description: Synergy between lipophilic FPPS inhibitors and azole antifungals was investigated by determining the fractional inhibitory concentration index (FICI) (Fig. 2; Table S1 Fig. S1) ([17]). […]. Derivatives PLA9 and 11, and PDA9, 11, and 12 antagonized azoles in C. albicans, C. neoformans, and C. deuterogattii, yet were largely synergistic in C. glabrata and S. cerevisiae. […].

Cryptococcus neoformans [8] = test: MIC/MFC broth microdilution (CLSI); conditions: Cryptococcus neoformans;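 further: susceptibility testing followed the CLSI M27-Ed4 broth microdilution document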
Procedure: as §2

Aspergillus flavus [9] = test: MIC/MFC broth microdilution (CLSI); conditions: ATCC204304
Procedure: as §2

Saccharomyces cerevisiae [10] = test: checkerboard drug interaction (FICI, MICc); format: cell-based; set-up: INH MICc / INH MICc (ITR:INH) / INH MICc (KET:INH) / INH MICc (FLC:INH): unit not given beside the values;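 further: simplified diagonal checkerboard screen pairing antifungals with FPPS inhibitors, FICI calculated under the Loewe additivity model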
Aspergillus fumigatus [11] = test: MIC/MFC broth microdilution (CLSI); conditions: ATCC204305
Procedure: as §2

[12] = tested on: Cryptococcus deuterogattii; test: checkerboard drug interaction (FICI, MICc);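 on all read-outs here: simplified diagonal checkerboard screen pairing antifungal drugs with FPPS inhibitors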; format: cell-based; conditions: C. deuterogattii; for INH FD (MIC-MICc fold decrease): fold decrease of inhibitor MIC
Procedure: as §1

Candida glabrata [13] = test: MIC/MFC broth microdilution (CLSI); conditions: Nakaseomyces glabratus, CBS138;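 further: broth microdilution following CLSI M27-Ed4, MFC taken as the lowest drug level yielding no growth once MIC wells were subcultured on SDA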
Procedure: as §2

Candida glabrata [14] = test: checkerboard drug interaction (FICI, MICc);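 on all read-outs here: simplified diagonal checkerboard screen pairing antifungals with FPPS inhibitors, FICI calculated under the Loewe additivity model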; format: cell-based; conditions: C. glabrata; for INH FD (MIC-MICc fold decrease): fold decrease of inhibitor MIC
Procedure: as §1

Saccharomyces cerevisiae [15] = test: MIC/MFC broth microdilution (CLSI); format: cell-based; conditions: Saccharomyces cerevisiae S288c
Procedure: as §2

eight fungal species [16] = test: MIC/MFC summary across the eight fungal species of Table 1; format: cell-based
Procedure: The antifungal activity of these compounds was evaluated according to CLSI guidelines ([16]).

Cryptococcus neoformans [17] = test: checkerboard drug interaction (FICI, MICc);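 on all read-outs here: antifungal plus FPPS inhibitor pairs tested against Cryptococcus neoformans by simplified diagonal checkerboard screening, FICI computed under the Loewe additivity model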; format: cell-based; conditions: C. neoformans; for INH FD (MIC-MICc fold decrease): fold decrease of inhibitor MIC
Procedure: as §1

[18] = tested on: Cryptococcus deuterogattii; test: MIC/MFC broth microdilution (CLSI); conditions: Cryptococcus deuterogattii;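 further: broth microdilution per CLSI M27-Ed4. MFC is the lowest concentration yielding no colonies when MIC broths are subcultured onto SDA plates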
Procedure: as §2

[19] = FLC:INH combination, MIC of the inhibitor in combination with FLC
[20] = FLC:INH combination, fold decrease of FLC MIC
[21] = ITR:INH combination, MIC of the inhibitor in combination with ITR
[22] = ITR:INH combination, fold decrease of ITR MIC
[23] = KET:INH combination, MIC of the inhibitor in combination with KET
[24] = KET:INH combination, fold decrease of KET MIC
[25] = Fractional Inhibitory Concentration Index, fluconazole + inhibitor
[26] = Fractional Inhibitory Concentration Index, itraconazole + inhibitor
[27] = Fractional Inhibitory Concentration Index, ketoconazole + inhibitor
[28] = MIC of the inhibitor in combination with fluconazole
[29] = MIC of the inhibitor in combination with itraconazole
[30] = MIC of the inhibitor in combination with ketoconazole
[31] = MIC-MICc fold decrease of fluconazole, negative = increase
[32] = MIC-MICc fold decrease of itraconazole, negative = increase
[33] = MIC-MICc fold decrease of ketoconazole, negative = increase
[34] = MIC-MICc fold decrease of the inhibitor, with fluconazole
[35] = MIC-MICc fold decrease of the inhibitor, with itraconazole
[36] = MIC-MICc fold decrease of the inhibitor, with ketoconazole

CCCCCCCCCCN1CCC[C@H]1C(=O)N[C@H](CC(=O)OC)C(=O)OC [dmPDA10]
FICI (Candida albicans [1]; FLC:INH combination): 1.5 | INH MICc (Candida albicans [1]; [19]): 8 | FLC FD (MIC-MICc fold decrease) (Candida albicans [1]; [20]): 1 | INH FD (MIC-MICc fold decrease) (Candida albicans [1]; FLC:INH combination): 2 | FICI (Candida albicans [1]; ITR:INH combination): 0.75 | INH MICc (Candida albicans [1]; [21]): 4 | ITR FD (MIC-MICc fold decrease) (Candida albicans [1]; [22]): 2 | INH FD (MIC-MICc fold decrease) (Candida albicans [1]; ITR:INH combination): 4 | FICI (Candida albicans [1]; KET:INH combination): 0.75 | INH MICc (Candida albicans [1]; [23]): 4 | KET FD (MIC-MICc fold decrease) (Candida albicans [1]; [24]): 2 | INH FD (MIC-MICc fold decrease) (Candida albicans [1]; KET:INH combination): 4 | MFC (Trichophyton rubrum [2]): > 128 µg/mL | MIC (Trichophyton rubrum [2]): 8 µg/mL (≈ 20.1 µM) | FICI (FLC:INH) (Trichophyton rubrum [3]; [25]): ≥4 | FICI (ITR:INH) (Trichophyton rubrum [3]; [26]): ≥4 | FICI (KET:INH) (Trichophyton rubrum [3]; [27]): ≥4 | INH MICc (FLC:INH) (Trichophyton rubrum [3]; [28]): 64 | INH MICc (ITR:INH) (Trichophyton rubrum [3]; [29]): 64 | INH MICc (KET:INH) (Trichophyton rubrum [3]; [30]): 64 | FLC FD (FLC:INH) (Trichophyton rubrum [3]; [31]): 2 | ITR FD (ITR:INH) (Trichophyton rubrum [3]; [32]): 4 | KET FD (KET:INH) (Trichophyton rubrum [3]; [33]): 2 | INH FD (FLC:INH) (Trichophyton rubrum [3]; [34]): < -4 | INH FD (ITR:INH) (Trichophyton rubrum [3]; [35]): < -4 | INH FD (KET:INH) (Trichophyton rubrum [3]; [36]): < -4 | FICI (FLC:INH) (Aspergillus flavus [4]; [25]): 0.75 | FICI (ITR:INH) (Aspergillus flavus [4]; [26]): 1.5 | FICI (KET:INH) (Aspergillus flavus [4]; [27]): 0.63 | INH MICc (FLC:INH) (Aspergillus flavus [4]; [28]): 32 | INH MICc (ITR:INH) (Aspergillus flavus [4]; [29]): 32 | INH MICc (KET:INH) (Aspergillus flavus [4]; [30]): 8 | FLC FD (FLC:INH) (Aspergillus flavus [4]; [31]): 4 | ITR FD (ITR:INH) (Aspergillus flavus [4]; [32]): 1 | KET FD (KET:INH) (Aspergillus flavus [4]; [33]): 2 | INH FD (FLC:INH) (Aspergillus flavus [4]; [34]): 2 | INH FD (ITR:INH) (Aspergillus flavus [4]; [35]): 2 | INH FD (KET:INH) (Aspergillus flavus [4]; [36]): 8 | IC50 (HEK-293T cells): 1.84 µg/mL (≈ 4.62 µM) | FICI (FLC:INH) (Aspergillus fumigatus [5]; [25]): 2.13 | FICI (ITR:INH) (Aspergillus fumigatus [5]; [26]): 0.63 | FICI (KET:INH) (Aspergillus fumigatus [5]; [27]): 2.25 | INH MICc (FLC:INH) (Aspergillus fumigatus [5]; [28]): 32 | INH MICc (ITR:INH) (Aspergillus fumigatus [5]; [29]): 2 | INH MICc (KET:INH) (Aspergillus fumigatus [5]; [30]): 32 | FLC FD (FLC:INH) (Aspergillus fumigatus [5]; [31]): 8 | ITR FD (ITR:INH) (Aspergillus fumigatus [5]; [32]): 2 | KET FD (KET:INH) (Aspergillus fumigatus [5]; [33]): 4 | INH FD (FLC:INH) (Aspergillus fumigatus [5]; [34]): -2 | INH FD (ITR:INH) (Aspergillus fumigatus [5]; [35]): 8 | INH FD (KET:INH) (Aspergillus fumigatus [5]; [36]): -2 | MFC (Candida albicans [6]): 32 µg/mL (≈ 80.3 µM) | MIC (Candida albicans [6]): 16 µg/mL (≈ 40.1 µM) | GM fungal MICc (eight fungal species [7]): 14.7 | MFC (Cryptococcus neoformans [8]): 32 µg/mL (≈ 80.3 µM) | MIC (Cryptococcus neoformans [8]): 16 µg/mL (≈ 40.1 µM) | MFC (Aspergillus flavus [9]): 64 µg/mL (≈ 161 µM) | MIC (Aspergillus flavus [9]): 64 µg/mL (≈ 161 µM) | FICI (FLC:INH) (Saccharomyces cerevisiae [10]; [25]): ≥4 | FICI (ITR:INH) (Saccharomyces cerevisiae [10]; [26]): 3 | FICI (KET:INH) (Saccharomyces cerevisiae [10]; [27]): 1.13 | INH MICc (FLC:INH) (Saccharomyces cerevisiae [10]; [28]): 32 | INH MICc (ITR:INH) (Saccharomyces cerevisiae [10]; [29]): 16 | INH MICc (KET:INH) (Saccharomyces cerevisiae [10]; [30]): 16 | FLC FD (FLC:INH) (Saccharomyces cerevisiae [10]; [31]): -2 | ITR FD (ITR:INH) (Saccharomyces cerevisiae [10]; [32]): -2 | KET FD (KET:INH) (Saccharomyces cerevisiae [10]; [33]): 8 | INH FD (FLC:INH) (Saccharomyces cerevisiae [10]; [34]): -2 | INH FD (ITR:INH) (Saccharomyces cerevisiae [10]; [35]): 1 | INH FD (KET:INH) (Saccharomyces cerevisiae [10]; [36]): 1 | MFC (Aspergillus fumigatus [11]): 32 µg/mL (≈ 80.3 µM) | MIC (Aspergillus fumigatus [11]): 32 µg/mL (≈ 80.3 µM) | FICI ([12]; FLC:INH combination): 1.25 | INH MICc [12, 19]: 16 | FLC FD (MIC-MICc fold decrease) [12, 20]: 4 | INH FD (MIC-MICc fold decrease) ([12]; FLC:INH combination): 1 | FICI ([12]; ITR:INH combination): 1.5 | INH MICc [12, 21]: 16 | ITR FD (MIC-MICc fold decrease) [12, 22]: 2 | INH FD (MIC-MICc fold decrease) ([12]; ITR:INH combination): 1 | FICI ([12]; KET:INH combination): 0.53 | INH MICc [12, 23]: 8 | KET FD (MIC-MICc fold decrease) [12, 24]: 32 | INH FD (MIC-MICc fold decrease) ([12]; KET:INH combination): 2 | MFC (Candida glabrata [13]): 32 µg/mL (≈ 80.3 µM) | MIC (Candida glabrata [13]): 32 µg/mL (≈ 80.3 µM) | FICI (Candida glabrata [14]; FLC:INH combination): ≥4 | INH MICc (Candida glabrata [14]; [19]): 16 | FLC FD (MIC-MICc fold decrease) (Candida glabrata [14]; [20]): 1 | INH FD (MIC-MICc fold decrease) (Candida glabrata [14]; FLC:INH combination): 1 | FICI (Candida glabrata [14]; ITR:INH combination): 3 | INH MICc (Candida glabrata [14]; [21]): 8 | ITR FD (MIC-MICc fold decrease) (Candida glabrata [14]; [22]): 1 | INH FD (MIC-MICc fold decrease) (Candida glabrata [14]; ITR:INH combination): 2 | FICI (Candida glabrata [14]; KET:INH combination): ≥4 | INH MICc (Candida glabrata [14]; [23]): 16 | KET FD (MIC-MICc fold decrease) (Candida glabrata [14]; [24]): -2 | INH FD (MIC-MICc fold decrease) (Candida glabrata [14]; KET:INH combination): 1 | MFC (Saccharomyces cerevisiae [15]): 16 µg/mL (≈ 40.1 µM) | MIC (Saccharomyces cerevisiae [15]): 16 µg/mL (≈ 40.1 µM) | Geometric mean MFC (eight fungal species [16]; across eight species): 45.3 µg/mL | MFC (eight fungal species [16]; across eight species, read-out: Geometric mean MFC): 45.3 µg/mL (≈ 114 µM) | MIC (eight fungal species [16]; geometric mean across eight species, read-out: GM fungal MIC): 20.7 µg/mL (≈ 51.9 µM) | MIC (eight fungal species [16]; read-out: Geometric mean MIC): 20.7 µg/mL (≈ 51.9 µM) | FICI (Cryptococcus neoformans [17]; FLC:INH combination): 0.75 | INH MICc (Cryptococcus neoformans [17]; [19]): 8 | FLC FD (MIC-MICc fold decrease) (Cryptococcus neoformans [17]; [20]): 4 | INH FD (MIC-MICc fold decrease) (Cryptococcus neoformans [17]; FLC:INH combination): 2 | FICI (Cryptococcus neoformans [17]; ITR:INH combination): 0.75 | INH MICc (Cryptococcus neoformans [17]; [21]): 8 | ITR FD (MIC-MICc fold decrease) (Cryptococcus neoformans [17]; [22]): 4 | INH FD (MIC-MICc fold decrease) (Cryptococcus neoformans [17]; ITR:INH combination): 2 | FICI (Cryptococcus neoformans [17]; KET:INH combination): 0.75 | INH MICc (Cryptococcus neoformans [17]; [23]): 8 | KET FD (MIC-MICc fold decrease) (Cryptococcus neoformans [17]; [24]): 4 | INH FD (MIC-MICc fold decrease) (Cryptococcus neoformans [17]; KET:INH combination): 2 | MFC [18]: 64 µg/mL (≈ 161 µM) | MIC [18]: 16 µg/mL (≈ 40.1 µM)
